Experimental data reported in US9693556B2, “Herbicidal pyridazinone derivatives” (SYNGENTA LIMITED, priority 2011, dated 2017).

Columns and labels:
Assay type in all cases: in vivo
[1] = system: Alopecurus myosuroides (ALOMY); test: Pre-emergence herbicidal glasshouse test on Alopecurus myosuroides; details: pre-emergence; 1000 g/h; evaluated after 13 days
How it was run: (§1)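 Scored on a five-point scale (1 = 0-19% to 5 = 80-100% damage) 13 days after treatment. Application rate 1000 g/h in acetone/water (50:50) containing 0.5% Tween 20, sprayed one day post-sowing for pre-emergence or eight days for post-emergence; glasshouse at 24/16° C, 14 h light, 65% humidity.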

[2] = system: Ipomoea hederacea (IPOHE); test: Pre-emergence herbicidal glasshouse test on Ipomoea hederacea; details: pre-emergence; 1000 g/h; evaluated after 13 days
How it was run: as §1

[3] = system: Amaranthus retoflexus (AMARE); test: Pre-emergence herbicidal glasshouse test on Amaranthus retoflexus; details: pre-emergence; 1000 g/h; evaluated after 13 days
How it was run: as §1

[4] = system: Alopecurus myosuroides (ALOMY); test: Post-emergence herbicidal glasshouse test on Alopecurus myosuroides; details: post-emergence; 1000 g/h; evaluated after 13 days
How it was run: as §1

[5] = system: Amaranthus retoflexus (AMARE); test: Post-emergence herbicidal glasshouse test on Amaranthus retoflexus; details: post-emergence; 1000 g/h; evaluated after 13 days
How it was run: as §1

[6] = system: Ipomoea hederacea (IPOHE); test: Post-emergence herbicidal glasshouse test on Ipomoea hederacea; details: post-emergence; 1000 g/h; evaluated after 13 days
How it was run: as §1

[7] = system: Echinochloa crus-galli (ECHCG); test: Post-emergence herbicidal glasshouse test on Echinochloa crus-galli; details: post-emergence; 1000 g/h; evaluated after 13 days
How it was run: as §1

Solanum nigrum (SOLNI) [8] = test: Post-emergence herbicidal glasshouse test on Solanum nigrum; details: post-emergence; 1000 g/h; evaluated after 13 days
How it was run: as §1

Setaria faberi (SETFA) [9] = test: Post-emergence herbicidal glasshouse test on Setaria faberi; details: post-emergence; 1000 g/h; evaluated after 13 days
How it was run: as §1

Solanum nigrum (SOLNI) [10] = test: Pre-emergence herbicidal glasshouse test on Solanum nigrum; details: pre-emergence; 1000 g/h; evaluated after 13 days
How it was run: as §1

Setaria faberi (SETFA) [11] = test: Pre-emergence herbicidal glasshouse test on Setaria faberi; details: pre-emergence; 1000 g/h; evaluated after 13 days
How it was run: as §1

[12] = system: Echinochloa crus-galli (ECHCG); test: Pre-emergence herbicidal glasshouse test on Echinochloa crus-galli; details: pre-emergence; 1000 g/h; evaluated after 13 days
How it was run: as §1

SMILES	PRE Application ALOMY herbicidal damage (five point scale) [1]	PRE Application IPOHE herbicidal damage (five point scale) [2]	PRE Application AMARE herbicidal damage (five point scale) [3]	POST Application ALOMY herbicidal damage (five point scale) [4]	POST Application AMARE herbicidal damage (five point scale) [5]	POST Application IPOHE herbicidal damage (five point scale) [6]	POST Application ECHCG herbicidal damage (five point scale) [7]	POST Application SOLNI herbicidal damage (five point scale) (Solanum nigrum (SOLNI) [8])	POST Application SETFA herbicidal damage (five point scale) (Setaria faberi (SETFA) [9])	PRE Application SOLNI herbicidal damage (five point scale) (Solanum nigrum (SOLNI) [10])	PRE Application SETFA herbicidal damage (five point scale) (Setaria faberi (SETFA) [11])	PRE Application ECHCG herbicidal damage (five point scale) [12]
COCn1ncc(-c2ccc(C(F)(F)F)cc2[S+](C)[O-])c(O)c1=O (stereo not drawn) [Compound 1.146]	4 (4=60-79% damage)	4 (4=60-79% damage)	5 (5=80-100% damage)	5 (5=80-100% damage)	5 (5=80-100% damage)	5 (5=80-100% damage)	5 (5=80-100% damage)	5 (5=80-100% damage)	5 (5=80-100% damage)	5 (5=80-100% damage)	2 (2=20-39% damage)	5 (5=80-100% damage)
Cn1ncc(-c2cccn(CC3CC3)c2=O)c(O)c1=O [Compound 9.006]	1 (1=0-19% damage)	1 (1=0-19% damage)	1 (1=0-19% damage)	2 (2=20-39% damage)	3 (3=40-59% damage)	2 (2=20-39% damage)	1 (1=0-19% damage)	3 (3=40-59% damage)	2 (2=20-39% damage)	1 (1=0-19% damage)	1 (1=0-19% damage)	1 (1=0-19% damage)
COc1ccc(-c2cnn(C)c(=O)c2O)c(Cl)c1 [Compound 1.103]	1 (1=0-19% damage)	1 (1=0-19% damage)	1 (1=0-19% damage)	1 (1=0-19% damage)	1 (1=0-19% damage)	1 (1=0-19% damage)	1 (1=0-19% damage)	2 (2=20-39% damage)	1 (1=0-19% damage)	1 (1=0-19% damage)	1 (1=0-19% damage)	1 (1=0-19% damage)
CCn1ncc(-c2ccc(C(F)(F)F)nc2S(C)(=O)=O)c(O)c1=O [Compound 4.001]	5 (5=80-100% damage)	5 (5=80-100% damage)	5 (5=80-100% damage)	5 (5=80-100% damage)	5 (5=80-100% damage)	5 (5=80-100% damage)	5 (5=80-100% damage)	5 (5=80-100% damage)	5 (5=80-100% damage)	5 (5=80-100% damage)	5 (5=80-100% damage)	5 (5=80-100% damage)
Cn1ncc(-c2ccc(S(C)(=O)=O)c(F)c2Cl)c(O)c1=O [Compound 1.021]	2 (2=20-39% damage)	2 (2=20-39% damage)	5 (5=80-100% damage)	1 (1=0-19% damage)	5 (5=80-100% damage)	5 (5=80-100% damage)	5 (5=80-100% damage)	5 (5=80-100% damage)	1 (1=0-19% damage)	1 (1=0-19% damage)	1 (1=0-19% damage)	5 (5=80-100% damage)
